Source: US10324079B2, “Method for rapid testing allergy” (priority 2013, dated 2019)

Legend:
Format in all cases: cell-based, human
[1] = test system: leukocytes of the patient; assay: LMT (leukocyte migration test); details: positive with MI value > 150 and p < 0.05
Protocol: (§1) The patient having the typical allergy-like symptom (skin lesion) and the atypical patient were tested by the three different methods, namely the DLST, which is widely used for clinical tests, the LMT, which is sometimes reported more accurate than the DLST, and the present method, and then the results were compared. […] The typical case was determined as negative though the patient clearly developed the skin symptom of the toxic epidermal necrolysis (TEN) according to the clinical presentation and the clinical course.

[2] = test system: lymphocytes of the patient; assay: DLST (drug-induced lymphocyte stimulation test)
Protocol: as §1

[3] = test system: Peripheral blood Mononuclear cells (PBMC) of patient #3; leukocytes of a healthy volunteer as chemotactic cells; assay: Migration of healthy-volunteer leukocytes toward reactive solution of patient #3 mononuclear cells stimulated with suspected drug (Example 3); details: for Velocity (judgment of migration velocity, % of control) / Distance (judgment of migration distance, % of control): patient #3 PBMC + serum, 72 h, suspected drugs at ½ of Cmax, PHA 1 μg/ml, relative to PHA-stimulated reactive solution; for chemotaxis or migration ability of the chemotactic cells (FIG. 5A): images recorded for 20 minutes
Protocol: Leukocytes including granulocytes such as neutrophils were separated from heparinized blood of a healthy volunteer who had no allergic symptom by the density gradient centrifugation (Lymphocyte (Registered Trademark)—poly: CEDARLANE Labs. Ltd., Ontario, Canada) in accordance with a conventional method, and suspended in 5 ml of a culture medium (RPMI 1640: Sigma-Aldrich, MO, USA). After culturing the cells in a CO2 incubator at 37° C. for 1 hour the cells was adjusted to the concentration of about 5×10^5 cells/ml and used as chemotactic cells.
The chemotactic cells were injected into the lower well in the holder of EZ-TAXIScan™ (GE Healthcare, Tokyo) at about 5 μl/well, and were drawn to the end of the observation terrace by suction. Subsequently, the serum was injected into the upper well at 1.5 μl/well with a microsyringe to create a concentration gradient on the observation terrace, and images of the chemotactic cells on the observation terrace were sequentially recorded. The depth of the terrace was 4 μm.
The kinetics of the chemotactic cells migrating on the observation terrace was analyzed with software for processing images, ImageJ (NIH, MD, USA). Various parameters concerned with chemotaxis or migration ability of the cell toward the serum such as velocity, distance and direction of the migration were calculated. The statistical analysis was performed using GraphPad Prism (Registered Trademark) (GraphPad Software, CA, USA).
A drug solution was prepared by dissolving a drug in a Hank's balanced salt solution (HBSS: Sigma-Aldrich) if the drug was a solid preparation such as a soluble tablet or a powder. If the drug was poorly soluble, it was dissolved in Dimethyl-sulfoxide (DMSO: Sigma-Aldrich) and the solution was diluted with HBSS so that the final concentration of DMSO was 1% or less. A solution containing the drug solution and the serum of the patient in a ratio of 1:1 was used as a solution of the antigenic drug. The concentrations of the suspected drugs were set to ½ of the Cmax in principle. The concentration of phytohemagglutinin (PHA: Wako Pure Chemical Industries, Ltd., Osaka), a control antigen for stimulating or activating the lymphocytes, was set to 1 μg/ml.
Peripheral blood Mononuclear cells (PBMC) were separated from heparinized blood of the patient by density gradient centrifugation (Lymphoprep™: Axis-Shield PoC, Oslo, Norway) in a conventional manner, washed with HBSS, and then adjusted to the concentration of about 5×10^6 cells/ml with a culture medium for reaction (RPMI 1640 containing 10% horse serum (Invitrogen, CA, USA)).
A mixture of the suspension of the mononuclear cells and the solution of the antigenic drug in a ratio of 4:1 was reacted in a CO2 incubator at 37° C. for 72 hours, and the supernatant was used as a reactive solution stimulated with the antigen. PHA (a), gasmotin (b), dogmatyl (c), pariet (d) and DMSO (e) were used as the antigen.
The cell kinetics was measured in the substantially same manner as in Example 1 excepting that the reactive solution stimulated with the antigen was injected into the upper well in place of the serum.

[4] = patient #3, vs other suspected drugs and solvent (c, d and e), p<0.05

CCC(C)n1ncn(-c2ccc(N3CCN(c4ccc(OCC5COC(Cn6cncn6)(c6ccc(Cl)cc6Cl)O5)cc4)CC3)cc2)c1=O (stereo not shown) [Itraconazole]
LMT (MI value) ([1]; Patient B, test 2): 135.5
DLST (SI value) ([2]; Patient B, test 1, positive with SI value > 180): 151
DLST (SI value) ([2]; Patient B, test 2, positive with SI value > 180): 90

CO/N=C(\C(=O)N[C@@H]1C(=O)N2C(C(=O)O)=C(C[N+]3(C)CCCC3)CS[C@H]12)c1csc(N)n1 [Maxipime]
LMT (MI value) ([1]; Patient A): 88.21
DLST (SI value) ([2]; Patient A, positive with SI value > 180): 112

CCN1CCCC1CNC(=O)c1cc(S(N)(=O)=O)ccc1OC (stereo not shown) [dogmatyl, Sulpride]
Velocity (judgment of migration velocity, % of control) [3]: +/− (80~90)

COCCCOc1ccnc(C[S+]([O-])c2nc3ccccc3[nH]2)c1C (stereo not shown) [pariet, Rabeprazole sodium]
Velocity (judgment of migration velocity, % of control) [3]: + (90~120)

Mosapride citrate hydrate [gasmotin]
chemotaxis or migration ability of the chemotactic cells (FIG. 5A) ([3]; patient #3): rapid migration of the chemotactic cells in the positive direction of the density gradient
migration distance (FIG. 5C) [3, 4]: significantly larger
migration velocity (FIG. 5B) [3, 4]: significantly larger
Distance (judgment of migration distance, % of control) [3]: ++ (>120)
Velocity (judgment of migration velocity, % of control) [3]: ++ (>120)

phytohemagglutinin [PHA]
LMT (MI value) ([1]; Patient A): 154.87
LMT (MI value) ([1]; Patient B): 283.9
chemotaxis or migration ability of the chemotactic cells (FIG. 5A) ([3]; patient #3): weaker than that induced with (b) but stronger than those induced with the other suspected drugs
Distance (judgment of migration distance, % of control) [3]: + (90~120)
Velocity (judgment of migration velocity, % of control) [3]: + (90~120)
DLST (SI value) ([2]; Patient A, class symbol): + (Positive with *SI value > 180 (DLST))
DLST (SI value) ([2]; Patient B, class symbol): + (Positive with *SI value > 180 (DLST))
